Experimental data taken from ChEMBL document CHEMBL4765455, “Design, synthesis, and biological evaluations of novel 3-amino-4-ethynyl indazole derivatives as Bcr-Abl kinase inhibitors with potent cellular antileukemic activity” (Eur J Med Chem, 2020).
Calls of active or inactive are those of the source. The calls are words filed in the database; no cut-off is given here.

Columns and labels:
[1] = Antiproliferative activity against human L132 cells assessed as cell growth inhibition incubated for 72 hrs by MTT assay; format: cell-based
K562 [2] = test: Antiproliferative activity against human K562 cells assessed as cell growth inhibition incubated for 72 hrs by MTT assay; format: functional
Bcr/Abl fusion protein [3] = biological target: Bcr/Abl fusion protein (Homo sapiens, UniProt P00519, T315I); test: Inhibition of BCR-ABL T315I mutant (unknown origin) incubated for 40 mins in presence of [gamma33P]ATP by scintillation method; format: protein assay
Bcr/Abl fusion protein [4] = biological target: Bcr/Abl fusion protein (Homo sapiens, UniProt P00519); test: Inhibition of wild type BCR-ABL (unknown origin) incubated for 40 mins in presence of [gamma33P]ATP by scintillation method; format: protein assay
HL-60(TB) [5] = test: Antiproliferative activity against human HL-60(TB) cells assessed as cell growth inhibition at 10 uM measured after 48 hrs by SRB assay relative to control; format: functional
RPMI-8226 [6] = test: Antiproliferative activity against human RPMI-8226 cells assessed as cell growth inhibition at 10 uM measured after 48 hrs by SRB assay relative to control; format: functional; settings: read-out: GI
MOLT-4 [7] = test: Antiproliferative activity against human MOLT-4 cells assessed as cell growth inhibition at 10 uM measured after 48 hrs by SRB assay relative to control; format: functional; settings: read-out: GI
SR [8] = test: Antiproliferative activity against human SR cells assessed as cell growth inhibition at 10 uM measured after 48 hrs by SRB assay relative to control; format: functional; settings: read-out: GI
K562 [9] = test: Antiproliferative activity against human K562 cells assessed as cell growth inhibition measured after 48 hrs by SRB assay; format: functional
CCRF-CEM [10] = test: Antiproliferative activity against human CCRF-CEM cells assessed as cell growth inhibition at 10 uM measured after 48 hrs by SRB assay relative to control; format: functional; settings: read-out: GI
K562 [11] = test: Antiproliferative activity against human K562 cells assessed as cell growth inhibition at 10 uM measured after 48 hrs by SRB assay relative to control; format: functional; settings: read-out: GI
HL-60(TB) [12] = test: Antiproliferative activity against human HL-60(TB) cells assessed as cell growth inhibition measured after 48 hrs by SRB assay; format: functional
[13] = Selectivity index, ratio of GI50 for human HL60(TB) cells to GI50 for human K562 cells; format: functional
RPMI-8226 [14] = test: Antiproliferative activity against human RPMI-8226 cells assessed as cell growth inhibition measured after 48 hrs by SRB assay; format: functional
CCRF-CEM [15] = test: Antiproliferative activity against human CCRF-CEM cells assessed as cell growth inhibition measured after 48 hrs by SRB assay; format: functional
SR [16] = test: Antiproliferative activity against human SR cells assessed as cell growth inhibition measured after 48 hrs by SRB assay; format: functional
MOLT-4 [17] = test: Antiproliferative activity against human MOLT-4 cells assessed as cell growth inhibition measured after 48 hrs by SRB assay; format: functional

SMILES: Nc1n[nH]c2cccc(C#Cc3cccc(C(=O)Nc4cc(C(F)(F)F)cc(C(F)(F)F)c4)c3)c12
- GI50 at 72 h [1]: > 100 µM
- GI50 (K562 [2]): 0.52 µM
- IC50 (Bcr/Abl fusion protein [3]): 1.48 µM

SMILES: Nc1n[nH]c2cccc(C#Cc3cccc(C(=O)Nc4cccc(C(F)(F)F)c4)c3)c12
- GI50 at 72 h [1]: 15.3 µM
- GI50 (K562 [2]): 3.47 µM
- IC50 (Bcr/Abl fusion protein [3]): 2.26 µM

SMILES: Nc1n[nH]c2cccc(C#Cc3cccc(C(=O)Nc4cc(CN5CCOCC5)cc(C(F)(F)F)c4)c3)c12
- GI50 at 72 h [1]: 16.7 µM
- GI50 (K562 [2]): 0.83 µM
- IC50 (Bcr/Abl fusion protein [4]): 0.571 µM
- IC50 (Bcr/Abl fusion protein [3]): 2.51 µM

SMILES: CN1CCN(c2ccc(C(=O)Nc3cccc(C#Cc4cccc5[nH]nc(N)c45)c3)cc2C(F)(F)F)CC1
- GI50 at 72 h [1]: > 10 µM
- GI50 (K562 [2]): 1.48 µM

SMILES: Nc1n[nH]c2cccc(C#Cc3cccc(NC(=O)c4cc(N5CCOCC5)cc(C(F)(F)F)c4)c3)c12
- GI50 at 72 h [1]: > 100 µM
- GI50 (K562 [2]): 2.21 µM
- IC50 (Bcr/Abl fusion protein [3]): 4.84 µM

SMILES: Nc1n[nH]c2cccc(C#Cc3cccc(C(=O)Nc4ccc(CN5CCOCC5)c(C(F)(F)F)c4)c3)c12
- GI50 at 72 h [1]: > 100 µM
- GI50 (K562 [2]): 0.57 µM
- IC50 (Bcr/Abl fusion protein [4]): 0.194 µM
- IC50 (Bcr/Abl fusion protein [3]): 1.61 µM

SMILES: Nc1n[nH]c2cccc(C#Cc3cccc(NC(=O)c4cccc(C(F)(F)F)c4)c3)c12
- GI50 at 72 h [1]: > 100 µM
- GI50 (K562 [2]): 1.54 µM
- IC50 (Bcr/Abl fusion protein [3]): 2.55 µM

SMILES: Cc1cn(-c2cc(C(=O)Nc3cccc(C#Cc4cccc5[nH]nc(N)c45)c3)cc(C(F)(F)F)c2)cn1
- GI50 at 72 h [1]: 10.9 µM
- GI50 (K562 [2]): 0.07 µM
- IC50 (Bcr/Abl fusion protein [4]): 0.0154 µM
- IC50 (Bcr/Abl fusion protein [3]): 1.44 µM

SMILES: Nc1n[nH]c2cccc(C#Cc3cccc(C(=O)Nc4ccc(Cl)c(C(F)(F)F)c4)c3)c12
- GI50 at 72 h [1]: > 100 µM
- GI50 (K562 [2]): 3.81 µM
- IC50 (Bcr/Abl fusion protein [3]): 1.42 µM

SMILES: Cc1ccc(NC(=O)c2ccc(CN3CCN(C)CC3)cc2)cc1Nc1nccc(-c2cccnc2)n1 [IMATINIB]
- GI50 at 72 h [1]: > 10 µM
- growth inhibition (GI) (HL-60(TB) [5]): inactive
- inhibition of growth at 10 µM (RPMI-8226 [6]): 12.6%
- GI50 (K562 [2]): 0.8 µM
- inhibition of growth at 10 µM (MOLT-4 [7]): 18%
- inhibition of growth at 10 µM (SR [8]): 14.6%
- GI50 (K562 [9]): 0.02 µM
- inhibition of growth at 10 µM (CCRF-CEM [10]): 6.6%

SMILES: Cc1ccc(C(=O)Nc2cccc(C#Cc3cccc4[nH]nc(N)c34)c2)cc1C(F)(F)F
- GI50 at 72 h [1]: > 100 µM
- GI50 (K562 [2]): 2.35 µM

SMILES: Cc1cn(-c2cc(NC(=O)c3cccc(C#Cc4cccc5[nH]nc(N)c45)c3)cc(C(F)(F)F)c2)cn1
- inhibition of growth at 10 µM (K562 [11]): 96.8%
- GI50 at 72 h [1]: 12.9 µM
- GI50 (HL-60(TB) [12]): 3.22 µM
- inhibition of growth at 10 µM (HL-60(TB) [5]; read-out: GI): 87.5%
- inhibition of growth at 10 µM (RPMI-8226 [6]): 86.2%
- RatioGI50 [13]: 322
- GI50 (RPMI-8226 [14]): 4.54 µM
- GI50 (K562 [2]): 0.15 µM
- inhibition of growth at 10 µM (MOLT-4 [7]): 79.3%
- GI50 (CCRF-CEM [15]): 4.88 µM
- inhibition of growth at 10 µM (SR [8]): 71.7%
- GI50 (K562 [9]): < 0.01 µM
- IC50 (Bcr/Abl fusion protein [4]): 0.0258 µM
- GI50 (SR [16]): 5.06 µM
- inhibition of growth at 10 µM (CCRF-CEM [10]): 85%
- IC50 (Bcr/Abl fusion protein [3]): 0.824 µM
- GI50 (MOLT-4 [17]): 3.84 µM

SMILES: Nc1n[nH]c2cccc(C#Cc3cccc(NC(=O)c4cc(C(F)(F)F)cc(C(F)(F)F)c4)c3)c12
- GI50 (K562 [2]): > 10 µM
- IC50 (Bcr/Abl fusion protein [3]): > 20 µM

SMILES: CN1CCN(Cc2cc(NC(=O)c3cccc(C#Cc4cccc5[nH]nc(N)c45)c3)cc(C(F)(F)F)c2)CC1
- GI50 at 72 h [1]: > 100 µM
- GI50 (K562 [2]): 0.3 µM
- IC50 (Bcr/Abl fusion protein [4]): 0.0567 µM
- IC50 (Bcr/Abl fusion protein [3]): 1.63 µM

SMILES: Nc1n[nH]c2cccc(C#Cc3cccc(NC(=O)c4cc(F)cc(C(F)(F)F)c4)c3)c12
- GI50 at 72 h [1]: > 100 µM
- GI50 (K562 [2]): 2.14 µM
- IC50 (Bcr/Abl fusion protein [3]): 5.28 µM
